From EP0018019A1, “Antimicrobial water-soluble compound which contains a rare earth metal cation, its application in oral compositions and method for controlling microorganisms therewith” (priority 1979, dated 1980)
Where two headings read alike, the source gives them in different places.

Tests used:
[1] = system: E. coli; assay type: cell-based; details: for effectiveness as component of the antimicrobial compositions: other polyvalent metals in place of the rare earth, tested in the foregoing manner; for Log Survivors/ml: approximately 10^7 E. coli/ml, 10 min. at 37°C
[2] = Stain test on pellicle-coated plastic artificial molars (coffee/tea); details: for Stain Grade: 0-8 scale (0 no stain, 8 continuous dark brown stain); for promotion of stains: demonstrated by the stain test
Description: Plastic artificial molars were mounted in the caps of disposable plastic vials using dental cement. A thin, organic pellicle was developed on the teeth by exposure for about 17 hours to pooled human saliva which has been centrifuged for 2 minutes at 500X gravity to remove food and similar debris. The coated teeth were serially exposed for 5 minutes to a solution of the test material, a distilled water rinse, for 5 minutes to a solution of instant coffee and tea (20 grams of commercial instant coffee and 2 grams of commercial instant tea in 1 liter of distilled water), a distilled water rinse, the test solution for 5 minutes, a distilled water rinse, the coffee/tea solution for 5 minutes, and a final distilled water rinse. The teeth were then graded for degree of staining on a 0-8 scale (where 0 was no stain and 8 was continuous dark brown stain) by comparison with a photographic standard.

[3] = system: E. coli ATCC 11775; assay: Minimum Bactericidal Concentration of LaLAS; assay type: cell-based; details: Gram-negative
Description: (§1) The data are from standard tests for measuring Minimum Bactericidal Concentrations (using a 10-minute contact with the test agent at 37°C; representing at least 3 log unit reduction in viable cell count).

[4] = system: Staph. epidermidis ATCC 14990; assay: Minimum Bactericidal Concentration of LaLAS; assay type: cell-based; details: Gram-positive
Description: as §1

[5] = system: Staph. aureus ATCC 6538; assay: Minimum Bactericidal Concentration of LaLAS; assay type: cell-based; details: Gram-positive
Description: as §1

[6] = system: Kleb. pneumoniae ATCC 4352; assay: Minimum Bactericidal Concentration of LaLAS; assay type: cell-based; details: Gram-negative
Description: as §1

[7] = system: Bacillus subtilis; assay: Minimum Bactericidal Concentration of LaLAS; assay type: cell-based; details: Gram-positive
Description: as §1

[8] = system: Ps. aeruginosa ATCC 15442; assay: Minimum Bactericidal Concentration of LaLAS; assay type: cell-based; details: Gram-negative
Description: as §1

[9] = system: Salmonella typhimurium; assay: Minimum Bactericidal Concentration of LaLAS; assay type: cell-based; details: Gram-negative
Description: as §1

[10] = system: Proteus vulgaris; assay: Minimum Bactericidal Concentration of LaLAS; assay type: cell-based; details: Gram-negative
Description: as §1

[11] = system: Strep. faecalis; assay: Minimum Bactericidal Concentration of LaLAS; assay type: cell-based; details: Gram-positive
Description: as §1

[12] = system: Micrococcus luteus ATCC 4698; assay: Minimum Bactericidal Concentration of LaLAS; assay type: cell-based; details: Gram-positive
Description: as §1

[13] = system: dental plaque; assay: In vitro growth of dental plaque on extracted human teeth in growth chambers; assay type: cell-based; details: plaque-inhibiting solutions for one minute each morning and afternoon, four days; compared with water-treated controls
Text: The efficacy of the antimicrobial composition LaLAS was compared with the known anti-plaque agent chlorhexidine digluconate for the prevention of dental plaque, as follows: • Lanthanum 4-(1'-methylnonyl)benzenesulfonate (LaLAS) was used in this test to reduce the in vitro growth of dental plaque on teeth. This was done using a system of glass growth chambers containing clean, extracted, sound human teeth mounted in stainless steel brackets. After sterilization in an autoclave, the growth chambers were inoculated with homogenized human plaque scrapings and serially treated with Trypticase® soy broth, sucrose, artificial saliva, and solutions of plaque-inhibiting materials for four days: The plaque-inhibiting solutions were introduced for one minute each morning and afternoon. After this treatment, the teeth were withdrawn from the growth chambers, stained with an alcoholic solution of basic fuchsin to disclose any plaque that had formed and, after randomization, graded for percent plaque coverage by three trained judges. Percent plaque reduction was calculated by comparison with water-treated controls. [formula]

[14] = system: E. coli; assay: Minimum Bactericidal Concentration test; assay type: cell-based; details: 10-minute contact at 37°C
Description: as §1

[15] = system: S. aureus; assay: Minimum Bactericidal Concentration test; assay type: cell-based; details: 10-minute contact at 37°C
Description: as §1

[16] = Water solubility / precipitation from solution; assay type: physicochemical; details: in combination with a rare earth
Text: Moreover, the compounds herein or their rare earth metal components precipitate from solution at pH's above about 8. See: Moeller and Kremers, Chem. Rev. 37:114 (1945). Moreover, highly acid (below about pH 4) solutions of the surfactants herein have antimicrobial properties in their own right. Of course, compositions intended for oral use should have a pH above about 4 to avoid damage to dental enamel. With certain species of microorganisms, especially with Pityrosporum ovale which is the causative microorganism for dandruff, the compositions herein are optimally active in the pH range of 4.0-4.5.
The present invention specifically encompasses the more water-soluble, antimicrobially-active rare earth/alkyl benzene sulfonate compositions.

[17] = Antimicrobial activity of rare earth/surfactant combinations; assay type: cell-based; details: in combination with a rare earth
Description: as §1

[18] = system: molds; details: cited from earlier work
[19] = system: Staphylococcus; details: cited from earlier work
[20] = inorganic lanthanum salt alone, at least 3 log unit reduction in viable cell count
[21] = Rare Earth Cation 0.01 mM + 2-C10LAS 0.03 mM
[22] = Rare Earth Cation 0.05 mM + 2-C10LAS 0.15 mM
[23] = Rare Earth Cation 0.1 mM + 2-C10LAS 0.3 mM
[24] = Rare Earth Cation 0.1 mM alone, 2-C10LAS 0 mM
[25] = 3 molecular equivalents of Na surfactant to 1 molecular equivalent of LaCl3

## aluminum
[1]
  effectiveness as component of the antimicrobial compositions: ineffective

## CCCCCCCCCCCCCCCC[n+]1ccccc1 [Cetylpyridinium chloride]
[2]; 2000 ppm test solution
  Stain Grade: 2.7

## lanthanum 4-(l'-methylnonyl)benzenesulfonate [LaLAS]
[3]
  Minimum Bactericidal Conc. of LaLAS: 32 ppm
[4]
  Minimum Bactericidal Conc. of LaLAS: 32 ppm
[5]
  Minimum Bactericidal Conc. of LaLAS: 32 ppm
[6]
  Minimum Bactericidal Conc. of LaLAS: 125 ppm
[7]
  Minimum Bactericidal Conc. of LaLAS: 500 ppm
[8]
  Minimum Bactericidal Conc. of LaLAS: 16 ppm
[9]
  Minimum Bactericidal Conc. of LaLAS: 125 ppm
[10]
  Minimum Bactericidal Conc. of LaLAS: 32 ppm
[11]
  Minimum Bactericidal Conc. of LaLAS: 32 ppm
[12]
  Minimum Bactericidal Conc. of LaLAS: 125 ppm
[13]
  anti-plaque efficacy: equivalent to chlorhexidine digluconate
[2]; 2000 ppm in 20% EtOH
  Stain Grade: 0
[2]; 2000 ppm test solution
  Stain Grade: 0.1
[2]
  promotion of stains: does not

## O.O.O.O.O.O.[Cl-].[Cl-].[Cl-].[La+3] [LaCl3·6H2O, lanthanum chloride hexahydrate]
[14]; [20]
  Minimum Bactericidal Concentration: >3500 ppm
[15]; [20]
  Minimum Bactericidal Concentration: >3500 ppm

## [Cl][La]([Cl])[Cl] [LaCl3]
[1]; [21]
  Log Survivors/ml: 0
[1]; [22]
  Log Survivors/ml: 0
[1]; [23]
  Log Survivors/ml: 0
[1]; [24]
  Log Survivors/ml: 5

## [Cl][Nd]([Cl])[Cl] [NdCl3]
[1]; [21]
  Log Survivors/ml: 1
[1]; [22]
  Log Survivors/ml: 0
[1]; [23]
  Log Survivors/ml: 0
[1]; [24]
  Log Survivors/ml: 3

## [Fe] [iron]
[1]
  effectiveness as component of the antimicrobial compositions: ineffective

## CCCCCCCCC(C)c1ccc(S(=O)(=O)O)cc1 (stereo not shown) [Compound 2-C10LAS, 4-(l'-methylnonyl)benzenesulfonate]
[14]; [25]
  Minimum Bactericidal Concentration (ppm) E. coli Na salt + LaCl3: 32 ppm
[14]; Escherichia coli, 10 min, surfactant as Na salt alone, read-out: Minimum Bactericidal Concentration (ppm) E. coli as Na salt
  MBC: > 2000 µg/mL
[15]; [25]
  Minimum Bactericidal Concentration (ppm) S. aureus Na salt + LaCl3: 32 ppm
[15]; Staphylococcus aureus, 10 min, surfactant as Na salt alone, read-out: Minimum Bactericidal Concentration (ppm) S. aureus as Na salt
  MBC: 2000 µg/mL
[1]; Rare Earth Cation 0 mM, 2-C10LAS 0.3 mM alone
  Log Survivors/ml: 6

## [Cl][Yb]([Cl])[Cl] [YbCl3]
[1]; [21]
  Log Survivors/ml: 0
[1]; [22]
  Log Survivors/ml: 0
[1]; [23]
  Log Survivors/ml: 0
[1]; [24]
  Log Survivors/ml: 2

## CCCCCCCCCCCCc1ccc(S(=O)(=O)O)cc1 [n-C12LAS]
[16]
  water solubility: rather water-insoluble
[17]
  antimicrobial activity: rather poor

## [H]/N=C(\N/C(=N/[H])NCCCCCCNC(=N)NC(=N)Nc1ccc(Cl)cc1)Nc1ccc(Cl)cc1 [chlorhexidine digluconate]
[2]
  promotion of stains: undesirably promotes stains

## [Ca] [calcium]
[1]
  effectiveness as component of the antimicrobial compositions: ineffective

## [H]/N=C(\N/C(=N/[H])NCCCCCCNC(=N)NC(=N)Nc1ccc(Cl)cc1)Nc1ccc(Cl)cc1 [Chlorhexidine]
[2]; 2000 ppm test solution
  Stain Grade: 3.2

## O=[N+]([O-])[O-].O=[N+]([O-])[O-].O=[N+]([O-])[O-].[Ce+3] [cerium nitrate]
[18]
  concentration that inhibits molds: 1000 ppm
[19]
  concentration that inhibits Staphylococcus: 1000 ppm

## [Cl][Dy]([Cl])[Cl] [DyCl3]
[1]; [21]
  Log Survivors/ml: 0
[1]; [22]
  Log Survivors/ml: 0
[1]; [23]
  Log Survivors/ml: 0
[1]; [24]
  Log Survivors/ml: 3

## [Cl][Pr]([Cl])[Cl] [PrCl3]
[1]; [21]
  Log Survivors/ml: 0
[1]; [22]
  Log Survivors/ml: 0
[1]; [23]
  Log Survivors/ml: 0
[1]; [24]
  Log Survivors/ml: 3

## [Mg] [magnesium]
[1]
  effectiveness as component of the antimicrobial compositions: ineffective
